# Experimental data published in ChEMBL document CHEMBL6177994 (J Med Chem, 2025).
# Calls of active or inactive are those of the source. The calls are words filed in the database; no cut-off is given here.
# How the values were obtained:
# NCI-H727 = experiment: Antiproliferative activity against human NCI-H727 cells harbouring KRAS G12V mutant assessed as inhibition of cell growth measured after 72 hrs by Cell titer glo method; assay type: functional, cell-based
# [1] = Inhibition of Raf (unknown origin)/GTP loaded KRas G12D mutant interaction preincubated for 15 mins followed by anti-tag1-eu3 and Tag2-XL665 antibody addition and measured for 120 mins by HTRF method; parameters: species or system Homo sapiens
# [2] = system: Protein cereblon/GTPase KRas (Homo sapiens), P01116+Q96SW2 [G12D]; experiment: PROTAC activity at CRBN/KRAS G12D mutant in human ASPC1 cells assessed as induction of KRAS G12D mutant degradation at 1 nM measured after 12 hrs by immunoblot analysis relative to control; assay type: cell-based
# [3] = Antitumor activity against human PK-59 cells xenografted in female Balb/c nude mouse model assessed as tumor growth inhibition at 1 mg/kg, iv QW measured after 28 days relative to control; assay type: functional; details: PK-59, 672 h, time 28 day, read-out: TGI
# [4] = Elimination half life in male ICR mouse lung at 10 mg/kg, iv measured up to 336 hrs by LC-MS/MS analysis; assay type: ADME, organism-based; details: read-out: beta t1/2 (converted)
# Cytochrome P450 2B6 = Cytochrome P450 2B6 (Homo sapiens, UniProt P20813); experiment: Inhibition of CYP2B6 in human liver microsomes using bupropion as substrate at 10 uM incubated for 20 mins in presence of NADPH by LC/MS analysis; assay type: ADME, Microsome
# [5] = Antitumor activity against human GP2d cells xenografted in female Balb/c nude mouse model assessed as tumor growth inhibition at 1 mg/kg, iv QW measured after 28 days relative to control; assay type: functional; details: 672 h, time 28 day, read-out: TGI
# CCRF-CEM [6] = experiment: Antitumor activity against human CCRF-CEM cells harbouring KRAS G12D mutant xenografted in female Balb/c nude mouse model assessed as tumor regression at 1 to 10 mg/kg, iv QW administered weekly and measured after 28 days; assay type: functional, organism-based; details: dose 1-10 mg/kg, time 28.0 day
# [7] = Metabolic stability in monkey liver microsomes assessed as half life at 1 uM preincubated for 3 mins with NADPH and measured up to 60 mins by LC-MS/MS analysis; assay type: ADME, Macaca mulatta, Microsome; details: rhesus monkey, time < 63 min
# [8] = system: Protein cereblon/GTPase KRas (Homo sapiens), P01116+Q96SW2 [G12D]; experiment: In vivo PROTAC activity at CRBN/KRAS G12D mutant in male Balb/c nude mouse xenografted with human GP2d cells assessed as degradation of KRAS G12D mutant at 10 mg/kg, iv measured after 7 days relative to control; assay type: functional, organism-based; details: time 7.0 day
# ASPC1 = experiment: Effect on CK1alpha level in human ASPC1 cells at 10 nM measured after 8 hrs by Western blot analysis; assay type: functional, cell-based
# Cytochrome P450 2C9 = Cytochrome P450 2C9 (Homo sapiens, UniProt P11712); experiment: Inhibition of CYP2C9 in human liver microsomes using diclofenac as substrate at 10 uM incubated for 15 mins in presence of NADPH by LC/MS analysis; assay type: ADME, Microsome; details: 0.25 h
# SW1990 = experiment: Antiproliferative activity against human SW1990 cells harbouring KRAS G12D mutant assessed as inhibition of cell growth measured after 72 hrs by Cell titer glo method; assay type: functional, cell-based
# [9] = Antitumor activity against human PK-59 cells xenografted in female Balb/c nude mouse model assessed as tumor growth inhibition at 3 mg/kg, iv QW measured after 28 days relative to control; assay type: functional; details: PK-59, 672 h, time 28 day, read-out: TGI
# [10] = Half life in male cynomolgus monkey at 1 mg/kg, iv measured up to 24 hrs by LC-MS/MS analysis; assay type: ADME, organism-based, Macaca fascicularis; details: in vivo
# [11] = Inhibition of ERK phosphorylation in human PK-59 cells harbouring KRAS G12D mutant measured after 24 hrs; assay type: cell-based; details: PK-59, 24 h
# Cytochrome P450 1A2 = Cytochrome P450 1A2 (Homo sapiens, UniProt P05177); experiment: Inhibition of CYP1A2 in human liver microsomes using phenacetin as substrate at 10 uM incubated for 15 mins in presence of NADPH by LC/MS analysis; assay type: ADME, Microsome; details: 0.25 h
# Cytochrome P450 2D6 = Cytochrome P450 2D6 (Homo sapiens, UniProt P10635); experiment: Inhibition of CYP2D6 in human liver microsomes using dextromethorphan as substrate at 10 uM incubated for 15 mins in presence of NADPH by LC/MS analysis; assay type: ADME, Microsome; details: 0.25 h
# Cytochrome P450 3A4 = Cytochrome P450 3A4 (Homo sapiens, UniProt P08684); experiment: Inhibition of CYP3A4 in human liver microsomes using testosterone as substrate at 10 uM incubated for 15 mins in presence of NADPH by LC/MS analysis; assay type: ADME, Microsome; details: 0.25 h
# HEK293 = experiment: Antiproliferative activity against HEK293 cells harbouring wild type KRAS assessed as inhibition of cell growth measured after 72 hrs by Cell titer glo method; assay type: toxicity, cell-based; details: human, hek293, 72 h
# [12] = Elimination half life in male ICR mouse colon at 10 mg/kg, iv measured up to 336 hrs by LC-MS/MS analysis; assay type: ADME, organism-based; details: read-out: beta t1/2 (converted)
# [13] = Plasma protein binding in human at 2 uM by LC-MS/MS analysis; assay type: ADME, cell-free; details: read-out: PPB
# [14] = Toxicity in female Balb/c nude mouse xenografted with human GP2d cells assessed as drug tolerance at 1 to 10 mg/kg, iv Q2W measured after 28 days; assay type: organism-based; details: in vivo, 672 h, dose 1-10 mg/kg, time 28 day
# CCRF-CEM [15] = experiment: Antiproliferative activity against human CCRF-CEM cells harbouring KRAS G12D mutant assessed as inhibition of cell growth measured after 72 hrs by Cell titer glo method; assay type: functional, cell-based
# [16] = AUC (0 to t) in male cynomolgus monkey at 1 mg/kg, iv measured up to 24 hrs by LC-MS/MS analysis; assay type: ADME, organism-based, Macaca fascicularis; details: in vivo
# [17] = Volume of distribution at steady state in male ICR mouse at 1 mg/kg, iv measured up to 24 hrs by LC-MS/MS analysis; assay type: ADME, organism-based; details: in vivo, read-out: Vdss
# [18] = target: Protein cereblon/GTPase NRas (Homo sapiens) (UniProt P01111+Q96SW2); experiment: PROTAC activity at CRBN/NRAS in human MKN-1 cells assessed as induction of […] 0.061 to 1000 nM measured after 24 hrs by immunoblot analysis; assay type: cell-based; details: dose 0.061-1000 nM
# [19] = system: Protein cereblon/GTPase KRas (Homo sapiens), P01116+Q96SW2 [G12D]; experiment: PROTAC activity at CRBN/KRAS G12D mutant in human ASPC1 cells assessed as induction of KRAS G12D mutant degradation at 1 nM measured up to 36 hrs by immunoblot analysis; assay type: cell-based
# [20] = system: Protein cereblon/GTPase KRas (Homo sapiens), P01116+Q96SW2 [G12D]; experiment: In vivo PROTAC activity at CRBN/KRAS G12D mutant in male Balb/c nude mouse xenografted with human PK-59 cells assessed as reduction in ERK phosphorylation level in tumor at 10 mg/kg, iv measured up to 168 hrs; assay type: functional, organism-based
# [21] = Stability in monkey plasma assessed as half life at 1 uM measured up to 120 mins by LC-MS/MS analysis; assay type: ADME, cell-free, Macaca mulatta; details: rhesus monkey
# [22] = Drug concentration in male Balb/c nude mouse tumor xenografted with human PK-59 cells at 10 mg/kg, iv administered as single dose measured after 168 hrs by LC-MS/MS analysis; assay type: ADME, organism-based, Neoplasm; details: read-out: Ct
# [23] = Antitumor activity against human GP2d cells xenografted in female Balb/c nude mouse model assessed as tumor growth inhibition at 10 mg/kg, iv QW administered weekly and measured after 28 days relative to control; assay type: functional; details: 672 h, time 28 day, read-out: TGI
# Sequence of Protein cereblon/GTPase KRas (Homo sapiens), P01116+Q96SW2 [G12D] (P01116 whole entry G12D): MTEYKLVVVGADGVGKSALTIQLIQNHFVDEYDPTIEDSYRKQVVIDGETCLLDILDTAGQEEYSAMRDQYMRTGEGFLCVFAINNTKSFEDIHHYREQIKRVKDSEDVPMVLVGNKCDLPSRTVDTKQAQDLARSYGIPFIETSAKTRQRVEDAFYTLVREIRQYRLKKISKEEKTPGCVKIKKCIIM
# Sequence of Protein cereblon/GTPase KRas (Homo sapiens), P01116+Q96SW2 [G12D] (Q96SW2 whole entry partner): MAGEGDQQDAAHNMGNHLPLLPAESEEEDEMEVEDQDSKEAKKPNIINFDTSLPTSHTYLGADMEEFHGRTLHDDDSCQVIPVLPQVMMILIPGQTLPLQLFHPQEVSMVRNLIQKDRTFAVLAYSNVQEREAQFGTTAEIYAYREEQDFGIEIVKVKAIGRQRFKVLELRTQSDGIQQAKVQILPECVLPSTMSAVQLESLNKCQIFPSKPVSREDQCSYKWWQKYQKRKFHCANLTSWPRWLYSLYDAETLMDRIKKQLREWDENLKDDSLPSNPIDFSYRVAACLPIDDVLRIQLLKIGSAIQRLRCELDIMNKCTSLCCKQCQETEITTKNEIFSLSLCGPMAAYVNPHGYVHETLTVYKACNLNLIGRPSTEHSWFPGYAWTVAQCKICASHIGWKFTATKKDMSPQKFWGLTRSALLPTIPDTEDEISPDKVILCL
# Sequence of Cytochrome P450 3A4 (P08684 whole entry): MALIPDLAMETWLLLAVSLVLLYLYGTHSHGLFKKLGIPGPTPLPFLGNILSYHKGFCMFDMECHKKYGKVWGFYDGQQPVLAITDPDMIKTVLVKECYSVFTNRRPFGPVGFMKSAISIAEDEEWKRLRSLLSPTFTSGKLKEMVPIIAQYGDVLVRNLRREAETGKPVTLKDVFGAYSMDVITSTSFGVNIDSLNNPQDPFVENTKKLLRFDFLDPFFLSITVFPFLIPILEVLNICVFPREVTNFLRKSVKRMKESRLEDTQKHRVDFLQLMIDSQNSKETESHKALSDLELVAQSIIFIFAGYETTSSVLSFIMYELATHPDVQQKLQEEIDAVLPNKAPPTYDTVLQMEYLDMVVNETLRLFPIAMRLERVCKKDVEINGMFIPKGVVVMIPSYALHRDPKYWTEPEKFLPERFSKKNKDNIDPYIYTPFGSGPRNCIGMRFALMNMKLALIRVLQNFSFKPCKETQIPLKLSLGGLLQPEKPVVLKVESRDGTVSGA
# Sequence of Cytochrome P450 1A2 (P05177 whole entry): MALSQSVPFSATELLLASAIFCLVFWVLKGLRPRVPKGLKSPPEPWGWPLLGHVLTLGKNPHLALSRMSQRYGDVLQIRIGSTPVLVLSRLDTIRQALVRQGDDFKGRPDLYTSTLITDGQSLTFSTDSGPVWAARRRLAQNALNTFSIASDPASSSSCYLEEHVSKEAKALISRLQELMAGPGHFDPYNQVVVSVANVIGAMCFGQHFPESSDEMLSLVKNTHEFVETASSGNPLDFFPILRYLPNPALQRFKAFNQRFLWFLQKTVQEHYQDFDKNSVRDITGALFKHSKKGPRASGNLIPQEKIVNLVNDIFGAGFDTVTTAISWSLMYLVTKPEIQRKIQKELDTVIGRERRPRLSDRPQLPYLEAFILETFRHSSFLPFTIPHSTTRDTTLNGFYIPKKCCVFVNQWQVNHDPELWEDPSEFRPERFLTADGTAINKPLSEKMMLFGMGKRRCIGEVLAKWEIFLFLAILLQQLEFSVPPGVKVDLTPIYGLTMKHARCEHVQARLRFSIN
# Sequence of Cytochrome P450 2C9 (P11712 whole entry): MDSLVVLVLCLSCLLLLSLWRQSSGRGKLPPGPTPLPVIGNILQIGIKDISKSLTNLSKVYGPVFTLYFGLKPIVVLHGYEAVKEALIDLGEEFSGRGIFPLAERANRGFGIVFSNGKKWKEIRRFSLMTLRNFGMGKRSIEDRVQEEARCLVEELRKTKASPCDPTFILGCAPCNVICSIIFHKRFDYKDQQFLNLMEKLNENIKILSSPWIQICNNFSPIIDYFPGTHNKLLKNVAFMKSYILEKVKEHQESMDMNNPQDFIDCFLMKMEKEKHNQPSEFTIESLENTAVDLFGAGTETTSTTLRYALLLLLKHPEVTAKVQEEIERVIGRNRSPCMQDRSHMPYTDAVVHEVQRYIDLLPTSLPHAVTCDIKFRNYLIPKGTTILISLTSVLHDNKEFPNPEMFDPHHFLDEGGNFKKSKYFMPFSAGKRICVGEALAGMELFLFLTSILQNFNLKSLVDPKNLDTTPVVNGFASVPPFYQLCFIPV
# Sequence of Protein cereblon/GTPase NRas (Homo sapiens) (P01111 whole entry, looked up): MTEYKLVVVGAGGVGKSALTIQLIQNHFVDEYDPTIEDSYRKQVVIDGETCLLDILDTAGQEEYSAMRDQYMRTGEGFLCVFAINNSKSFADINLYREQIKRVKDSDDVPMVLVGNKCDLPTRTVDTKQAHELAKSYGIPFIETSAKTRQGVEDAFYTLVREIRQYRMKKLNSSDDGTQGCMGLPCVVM
# Sequence of Protein cereblon/GTPase NRas (Homo sapiens) (Q96SW2 whole entry, looked up): as the sequence (Q96SW2 whole entry partner) above
# Sequence of Cytochrome P450 2D6 (P10635 whole entry): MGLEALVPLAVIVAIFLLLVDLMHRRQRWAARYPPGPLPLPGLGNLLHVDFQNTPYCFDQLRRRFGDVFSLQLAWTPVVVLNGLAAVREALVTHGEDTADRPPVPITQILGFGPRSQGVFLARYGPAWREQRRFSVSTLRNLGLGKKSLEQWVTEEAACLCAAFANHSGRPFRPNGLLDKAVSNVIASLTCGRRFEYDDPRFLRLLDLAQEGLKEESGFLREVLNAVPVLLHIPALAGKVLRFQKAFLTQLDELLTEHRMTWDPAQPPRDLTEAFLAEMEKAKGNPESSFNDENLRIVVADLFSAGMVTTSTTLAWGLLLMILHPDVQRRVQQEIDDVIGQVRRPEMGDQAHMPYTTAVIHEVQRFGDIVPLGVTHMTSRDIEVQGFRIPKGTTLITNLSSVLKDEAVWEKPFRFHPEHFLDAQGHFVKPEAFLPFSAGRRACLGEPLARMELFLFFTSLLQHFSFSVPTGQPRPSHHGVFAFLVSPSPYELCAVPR
# Sequence of Cytochrome P450 2B6 (P20813 whole entry): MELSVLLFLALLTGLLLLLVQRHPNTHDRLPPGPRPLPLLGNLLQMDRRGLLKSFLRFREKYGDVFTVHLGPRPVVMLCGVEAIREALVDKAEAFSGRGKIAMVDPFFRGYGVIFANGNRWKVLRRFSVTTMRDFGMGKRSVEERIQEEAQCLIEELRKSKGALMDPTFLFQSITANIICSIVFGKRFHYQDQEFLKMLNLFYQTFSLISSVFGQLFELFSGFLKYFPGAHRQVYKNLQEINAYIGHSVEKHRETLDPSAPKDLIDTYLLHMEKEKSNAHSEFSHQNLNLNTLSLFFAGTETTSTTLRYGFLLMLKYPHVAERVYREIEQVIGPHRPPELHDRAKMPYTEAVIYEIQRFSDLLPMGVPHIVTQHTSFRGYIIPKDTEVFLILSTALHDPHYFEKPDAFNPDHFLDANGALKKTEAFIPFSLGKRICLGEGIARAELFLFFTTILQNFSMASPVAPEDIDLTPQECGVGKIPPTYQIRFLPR
compound,measurement,setting,value
C#Cc1c(F)ccc2cc(O)cc(-c3ncc4c(N5CC6CCC(C5)N6)nc(OCC5(CN6CCC7(CC6)CC(N6CCC(c8cc9c(cc8F)c(N8CCC(=O)NC8=O)nn9C)CC6)C7)CC5)nc4c3F)c12,Activity,NCI-H727,Weak_effect; Compound Showed Weaker Potency In Antiproliferative Activity Compared To Mrtx1133
same,IC50,[1],3.23 nM
same,Activity,[2],70%
same,inhibition in vivo at 1 mg/kg,[3],98%
same,half-life,[4],105 h
same,inhibition (INH),Cytochrome P450 2B6,Not_active
same,inhibition in vivo at 1 mg/kg,[5],74.8%
same,Activity,CCRF-CEM [6],Weak_effect
same,half-life at 1 µM,[7],7.22 h
same,Activity,[8],95%
same,Activity,ASPC1,inactive
same,inhibition (INH),Cytochrome P450 2C9,Not_active
same,Activity,SW1990,Active; Compound Showed Stronger Antiproliferative Activity Compared To Mrtx1133
same,inhibition in vivo at 3 mg/kg,[9],42.9%
same,half-life,[10],12.4 h
same,IC50,[11],2.7 nM
same,inhibition (INH),Cytochrome P450 1A2,Not_active
same,inhibition (INH),Cytochrome P450 2D6,Not_active
same,inhibition (INH),Cytochrome P450 3A4,Not_active
same,Activity,HEK293,Non-toxic
same,half-life,[12],94.6 h
same,fraction unbound at 2 µM,[13],< 0.05
same,Activity,[14],Non-toxic
same,Activity,CCRF-CEM [15],Active; Compound Showed Stronger Antiproliferative Activity Compared To Mrtx1133
same,AUC(0-t) at 24 h,[16],0.836 µM·h
same,Vd,[17],15.8 L/kg
same,Activity,[18],inactive
same,Activity,[19],Active
same,Activity,[20],Active
same,half-life at 1 µM,[21],12.8 h
same,concentration at 168 h,[22],719 ng/g
same,inhibition in vivo at 10 mg/kg,[23],30.9%
